From the NIST ThermoML archive (doi:10.1021/je900468u)

Experiments:
[1] = refractive index (Na D-line) (dimensionless); xn = mol fraction of the nth substance listed; conditions: 101 kPa, Liquid, Standard Abbe refractometry
[2] = xn = mol fraction of the nth substance listed; conditions: 101 kPa, Liquid; for speed of sound: Pulse-echo method

Cc1ccccc1 [toluene] + CC1CCCCC1
x2 = 0
Conditions | mass density, [2] [kg/m3] | refractive index, [1] | speed of sound, [2] [m/s]
283.15 K | 876.1 | 1.50278 | 1371
298.15 K | 862.2 | 1.49399 | 1305

CCc1ccccc1 [ethylbenzene] + CC1CCCCC1
x2 = 0
Conditions | mass density, [2] [kg/m3] | refractive index, [1] | speed of sound, [2] [m/s]
283.15 K | 875.7 | 1.50129 | 1382
298.15 K | 862.5 | 1.49304 | 1319

C1CCCCCCC1 [cyclooctane] + CCc1ccccc1
298.15 K
Conditions | mass density, [2] [kg/m3] | refractive index, [1] | speed of sound, [2] [m/s]
x1 = 0.0465 | 860.4 | 1.49082 | 1321
x1 = 0.0962 | 858.3 | 1.48858 | 1322
x1 = 0.1961 | 854.1 | 1.48405 | 1327
x1 = 0.2944 | 850.3 | 1.47983 | 1332
x1 = 0.3975 | 846.6 | 1.47562 | 1339
x1 = 0.4959 | 843.4 | 1.47185 | 1346
x1 = 0.5935 | 840.4 | 1.46828 | 1353
x1 = 0.6929 | 837.6 | 1.46489 | 1361
x1 = 0.7954 | 835.2 | 1.4616 | 1370
x1 = 0.8899 | 833.2 | 1.45885 | 1379
x1 = 0.9497 | 832.1 | 1.45726 | 1385
x1 = 1 | 831.5 | 1.45598 | 1391

CC1CCCCC1 [methylcyclohexane] + Cc1ccccc1
Conditions | mass density, [2] [kg/m3] | refractive index, [1] | speed of sound, [2] [m/s]
283.15 K, x1 = 0.05 | 869.8 | 1.49797 | 1363
283.15 K, x1 = 0.0998 | 863.7 | 1.49331 | 1356
283.15 K, x1 = 0.198 | 852 | 1.48436 | 1342
283.15 K, x1 = 0.2951 | 841 | 1.47614 | 1330
283.15 K, x1 = 0.3968 | 830.3 | 1.46797 | 1320
283.15 K, x1 = 0.4959 | 820.3 | 1.46042 | 1311
283.15 K, x1 = 0.5973 | 810.7 | 1.45319 | 1302
283.15 K, x1 = 0.697 | 801.8 | 1.44643 | 1296
283.15 K, x1 = 0.7954 | 793.5 | 1.44018 | 1290
283.15 K, x1 = 0.8932 | 785.8 | 1.4342 | 1285
283.15 K, x1 = 0.9487 | 781.6 | 1.43118 | 1283
283.15 K, x1 = 1 | 777.9 | 1.42833 | 1281
298.15 K, x1 = 0.05 | 855.9 | 1.48937 | 1297
298.15 K, x1 = 0.0998 | 849.9 | 1.48481 | 1290
298.15 K, x1 = 0.198 | 838.2 | 1.47597 | 1276
298.15 K, x1 = 0.2951 | 827.4 | 1.4678 | 1264
298.15 K, x1 = 0.3968 | 816.8 | 1.45982 | 1253
298.15 K, x1 = 0.4959 | 806.9 | 1.45225 | 1244
298.15 K, x1 = 0.5973 | 797.4 | 1.44519 | 1236
298.15 K, x1 = 0.697 | 788.6 | 1.4385 | 1229
298.15 K, x1 = 0.7954 | 780.4 | 1.43233 | 1223
298.15 K, x1 = 0.8932 | 772.7 | 1.42635 | 1219
298.15 K, x1 = 0.9487 | 768.6 | 1.42344 | 1216
298.15 K, x1 = 1 | 765.1 | 1.42062 | 1215

Cc1ccccc1 [toluene] + C1CCCCCCC1
298.15 K, x2 = 0
Conditions | mass density [kg/m3] | refractive index | speed of sound [m/s]
[1] | – | 1.49399 | –
[2] | 862.2 | – | 1305

CCc1ccccc1 [ethylbenzene] + C1CCCCCCC1
298.15 K, x2 = 0
Conditions | mass density [kg/m3] | refractive index | speed of sound [m/s]
[1] | – | 1.49304 | –
[2] | 862.5 | – | 1319
